Measured values reported in patent US20090082438A1, “Coordination Compound Composed of Diaminocyclohexane Platinum (II) and Block Copolymer and Anti-Cancer Agent Comprising the Same” (priority 2005, published 2009).
Structures can show the parent of a compound that is named as a salt.

Tests used:
[1] = test system: mouse colon cancer Colon-26 cell line; experiment: Treating Test Example 2: anti-tumor and life-prolongation effect, i.v. administration to Colon-26-transplanted CDF1 mice; format: in vivo
[2] = Treating Test Example 2: toxicity (body weight change, deaths) in treated CDF1 mice; details: 10 mg/kg
Source text: In this experiment, the treatment was started on the 9th day after the tumor transplantation.

O=C1[O][Pt-2]2([NH2+]C3CCCC[C@H]3[NH2+]2)[O]C1=O (stereo partly shown) [oxaliplatin, oxalate (1,2-diaminocyclohexane)platinum (II)]
life-prolonging effect (survival) ([1]; doses 2, 4 or 6 mg/kg oxaliplatin): little life-prolonging effect | remarkable tumor growth-inhibiting effect ([1]; oxaliplatin up to 10 mg/kg, every third day, three times): not observed | body weight reduction to [2]: 80% | deaths compared with untreated group (survival number) [2]: earlier deaths than the untreated group
